ChEMBL document CHEMBL1128107, “Amino acid-derived piperidides as novel CCKB ligands with anxiolytic-like properties” (Bioorg Med Chem Lett, 1995)
Calls of active or inactive are those of the source. No cut-off for these calls is given here.

How the values were obtained:
[1] = target: T1, Cholecystokinin receptor type A (Cavia porcellus, UniProt Q63931); assay: Inhibitory activity towards binding of [125I]Bolton-Hunter-CCK-8 to CCKA receptor in guinea pig pancreatic tissue
T1 sequence (Q63931 whole entry): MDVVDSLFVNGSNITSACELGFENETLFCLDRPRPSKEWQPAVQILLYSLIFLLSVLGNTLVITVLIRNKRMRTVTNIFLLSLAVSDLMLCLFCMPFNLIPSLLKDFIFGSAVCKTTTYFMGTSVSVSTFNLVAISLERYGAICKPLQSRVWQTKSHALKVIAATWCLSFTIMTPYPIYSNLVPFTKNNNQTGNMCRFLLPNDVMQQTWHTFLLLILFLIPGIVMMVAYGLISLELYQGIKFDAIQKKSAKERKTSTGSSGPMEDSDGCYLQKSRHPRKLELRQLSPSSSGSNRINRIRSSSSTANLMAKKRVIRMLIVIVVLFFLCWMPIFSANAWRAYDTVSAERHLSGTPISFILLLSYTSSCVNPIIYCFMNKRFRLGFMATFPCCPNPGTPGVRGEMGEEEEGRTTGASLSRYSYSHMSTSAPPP

Mus musculus [2] = assay: In vivo anxiolytic activity in mouse upon ip administration; significant activity; format: functional, organism-based
NCI-H345 = assay: Ability to block CCK-8-induced calcium mobilization in NCI-H345 cells; format: functional, cell-based; details: Homo sapiens
Mus musculus [3] = assay: In vivo anxiolytic activity in mouse upon ip administration; less affinity and selectivity; format: functional, organism-based

`Cc1cccc(NC(=O)N[C@H](CCc2ccccc2)C(=O)N2CCC(C(=O)c3ccccc3)CC2)c1` gave an IC50 [1] of 2200 nM.

`Cc1cccc(NC(=O)N[C@H](COC(=O)N2CCCC2)C(=O)N2CCC(C(=O)Nc3ccccc3)CC2)c1` was tested, and the Activity (Mus musculus [2]) was “Active”, the IC50 (NCI-H345) was 115 nM and the IC50 [1] was 250 nM.

Molecule `Cc1cccc(NC(=O)N[C@@H](CC(C)C)C(=O)N2CCC(C(=O)c3ccccc3)CC2)c1` has an IC50 [1] of 5200 nM.

Work on `Cc1cccc(NC(=O)N[C@H](COCc2ccccc2)C(=O)N2CCC(C(=O)c3ccccc3)CC2)c1` yielded an IC50 [1] of 2400 nM.

For `Cc1cccc(NC(=O)N[C@H](CCC(=O)OCc2ccccc2)C(=O)N2CCN(C(=O)c3ccccc3)CC2)c1`, the IC50 [1] was 1500 nM.

`Cc1cccc(NC(=O)N[C@H](C[S+]([O-])Cc2ccccc2)C(=O)N2CCC(C(=O)c3ccccc3)CC2)c1` (stereo partly specified) showed an IC50 [1] of 800 nM.

`Cc1cccc(NC(=O)N[C@H](CCC(=O)N2CCCC2)C(=O)N2CCC(C(=O)c3ccccc3)CC2)c1` was tested, and the Activity (Mus musculus [3]) was “Weak activity”, the IC50 (NCI-H345) was 251 nM and the IC50 [1] was 1900 nM.

`Cc1cccc(NC(=O)N[C@H](CC(=O)OCc2ccccc2)C(=O)N2CCC(C(=O)c3ccccc3)CC2)c1` showed an IC50 [1] of 1300 nM.

`Cc1cccc(NC(=O)N[C@H](CCC(=O)OCc2ccccc2)C(=O)N2CCC(NC(=O)c3ccccc3)CC2)c1` gave an IC50 [1] of 970 nM.

In the case of `Cc1cccc(NC(=O)N[C@H](COC(=O)N2CCCC2)C(=O)N2CCC(C(=O)c3ccccc3)CC2)c1`, the Activity (Mus musculus [2]) is reported as “Active”, the IC50 (NCI-H345) is reported as 220 nM and the IC50 [1] is reported as 1400 nM.

`CC(C)(C)OC(=O)N[C@@H](Cc1c[nH]c2ccccc12)C(=O)N1CCC(C(=O)c2ccccc2)CC1` was tested, and the IC50 [1] was 4500 nM.

For `Cc1cccc(NC(=O)N[C@H](CCC(=O)O)C(=O)N2CCC(C(=O)c3ccccc3)CC2)c1`, the IC50 [1] was 1800 nM.

`Cc1cccc(NC(=O)N[C@@H](C(=O)N2CCC(C(=O)c3ccccc3)CC2)[C@@H](C)OCc2ccccc2)c1` gave an IC50 [1] of 1300 nM.

In the case of `CC1(C)C2CCC1(COC(=O)N[C@](C)(Cc1c[nH]c3ccccc13)C(=O)NC[C@@H](NC(=O)CCC(=O)O)c1ccccc1)CC2`, the Activity (Mus musculus [2]) is reported as “significant activity” and the IC50 (NCI-H345) is reported as 2 nM.

In the case of `Cc1cccc(NC(=O)N[C@H](COC(=O)Nc2ccccc2)C(=O)N2CCC(C(=O)c3ccccc3)CC2)c1`, the IC50 [1] is reported as 290 nM.

With `Cc1cccc(NC(=O)N[C@H](Cc2c[nH]c3ccccc23)C(=O)N2CCC(C(=O)c3ccccc3)CC2)c1` the IC50 [1] was 1400 nM.

For `CC(C)C[C@H](NC(=O)OC(C)(C)C)C(=O)N1CCC(C(=O)c2ccccc2)CC1`, the IC50 [1] was greater than 2100 nM.

In the case of `CC(C)C[C@H](NC(=O)[C@H](Cc1c[nH]c2ccccc12)NC(=O)OC(C)(C)C)C(=O)N1CCC(C(=O)c2ccccc2)CC1`, the IC50 [1] is reported as 640 nM.

`Cc1cccc(NC(=O)N[C@H](COC(=O)N(C)C)C(=O)N2CCC(C(=O)c3ccccc3)CC2)c1` was tested, and the IC50 [1] was 1300 nM.

With `Cc1cccc(NC(=O)N[C@H](CCCc2ccccc2)C(=O)N2CCC(C(=O)c3ccccc3)CC2)c1` the IC50 [1] was 1800 nM.

With `CC(=O)C1CCN(C(=O)[C@@H](COCc2ccccc2)NC(=O)Nc2cccc(C)c2)CC1` the IC50 [1] was 1300 nM.

`Cc1cccc(NC(=O)N[C@H](COC(=O)N2CCOCC2)C(=O)N2CCC(C(=O)c3ccccc3)CC2)c1` was tested, and the IC50 [1] was 1500 nM.

With `Cc1cccc(NC(=O)N[C@H](CCC(=O)OCc2ccccc2)C(=O)N2CCC(C(=O)Nc3ccccc3)CC2)c1` the IC50 [1] was 690 nM.

In the case of `Cc1cccc(NC(=O)N[C@H](COCc2ccccc2)C(=O)N2CCC(C(=O)c3ccc(F)cc3)CC2)c1`, the IC50 [1] is reported as 420 nM.

With `CCCC[C@@H](NC(=O)Nc1cccc(C)c1)C(=O)N1CCC(C(=O)c2ccccc2)CC1` the IC50 [1] was 2500 nM.

With `Cc1cccc(NC(=O)N[C@H](CSCc2ccccc2)C(=O)N2CCC(C(=O)c3ccccc3)CC2)c1` the IC50 [1] was 1300 nM.

Molecule `CC(Cc1c[nH]c2ccccc12)(NC(=O)OC1[C@H]2C[C@@H]3C[C@@H](C[C@H]1C3)C2)C(=O)N1CCC(C(=O)c2ccccc2)CC1` (stereo partly specified) has an IC50 [1] of 1700 nM.

Molecule `Cc1cccc(NC(=O)N[C@H](CCC(=O)OCc2ccccc2)C(=O)N2CCC(C(=O)c3ccccc3)CC2)c1` has an IC50 [1] of 900 nM.

For `Cc1cccc(NC(=O)N[C@H](COCc2ccccc2)C(=O)N2CCC(Cc3ccccc3)CC2)c1`, the IC50 [1] was 3400 nM.

Molecule `CC(C)C[C@H](NC(=O)[C@H](Cc1c[nH]c2ccccc12)NC(=O)OC(C)(C)C)C(=O)N1CCC(Cc2ccccc2)CC1` has an IC50 [1] of 200 nM.

`Cc1cccc(NC(=O)N[C@H](CC(C)C)C(=O)N2CCC(C(=O)c3ccccc3)CC2)c1` gave an IC50 [1] of 2000 nM.

`Cc1cccc(NC(=O)N[C@H](CS(=O)(=O)Cc2ccccc2)C(=O)N2CCC(C(=O)c3ccccc3)CC2)c1` gave an IC50 [1] of 1100 nM.

With `Cc1cccc(NC(=O)N[C@H](COCc2ccccc2)C(=O)N2CCC(C(=O)Nc3ccccc3)CC2)c1` the IC50 [1] was 500 nM.

`Cc1cccc(NC(=O)N[C@H](COCc2ccccc2)C(=O)N2CCCC(C(=O)Nc3ccccc3)C2)c1` (stereo partly specified) showed an IC50 [1] of 2200 nM.
